Converted amounts (≈) assume the structure as drawn.
Tests used:
[1] = system: Pasteurella multocida; assay: Minimum inhibitory concentration required to inhibit Pasteurella multocida 59A006 in vitro; type: functional
[2] = organism: Mus musculus; assay: Protected dose which protects 50% of challenged mice from death owing to the Pasteurella multocida (59A006) infection; type: functional; conditions: read-out: PD50

Row | Compound | MIC [1] [mg/L] | ED50 [2] [mg/kg]
1 | CC[C@H]1OC(=O)CC(O)[C@H](C)[C@@H](O[C@@H]2O[C@H](C)C[C@H](N(C)C)[C@H]2O)[C@@H](CCN(C)CCN(C)C(=O)CN)C[C@@H](C)C(=O)/C=C/C(C)=C/[C@@H]1C (stereo partly drawn) | 0.2 (≈ 0.288 µM) | 4
2 | CC[C@H]1OC(=O)CC(O)[C@H](C)[C@@H](O[C@@H]2O[C@H](C)C[C@H](N(C)C)[C@H]2O)[C@@H](CCN(C)CCNC)C[C@@H](C)C(=O)/C=C/C(C)=C/[C@@H]1C (stereo partly drawn) | 0.2 (≈ 0.314 µM) | > 20
3 | CC[C@H]1OC(=O)CC(O)[C@H](C)[C@@H](O[C@@H]2O[C@H](C)C[C@H](N(C)C)[C@H]2O)[C@@H](CCN(C)CCCN(C)C(=O)CNC)C[C@@H](C)C(=O)/C=C/C(C)=C/[C@@H]1C (stereo partly drawn) | 0.39 (≈ 0.539 µM) | 6
4 | CC[C@H]1OC(=O)CC(O)[C@H](C)[C@@H](O[C@@H]2O[C@H](C)C[C@H](N(C)C)[C@H]2O)[C@@H](CCN2CC(C)CC(C)C2)C[C@@H](C)C(=O)/C=C/[C@]2(C)O[C@H]2[C@@H]1C (stereo partly drawn) | 0.2 (≈ 0.295 µM) | > 150
5 | CC[C@H]1OC(=O)CC(O)[C@H](C)[C@@H](O[C@@H]2O[C@H](C)C[C@H](N(C)C)[C@H]2O)[C@@H](CCN2CCCC2)C[C@@H](C)C(=O)/C=C/[C@]2(C)O[C@H]2[C@@H]1C (stereo partly drawn) | 0.78 (≈ 1.22 µM) | > 150
6 | CC[C@H]1OC(=O)CC(O)[C@H](C)[C@@H](O[C@@H]2O[C@H](C)C[C@H](N(C)C)[C@H]2O)[C@@H](CCN(CCCN(C)C)C(=O)[C@H](C)N)C[C@@H](C)C(=O)/C=C/C(C)=C/[C@@H]1C (stereo partly drawn) | 0.39 (≈ 0.539 µM) | 3
7 | CC[C@H]1OC(=O)CC(O)[C@H](C)[C@@H](O[C@@H]2O[C@H](C)C[C@H](N(C)C)[C@H]2O)[C@@H](CCN(CC)CC)C[C@@H](C)C(=O)/C=C/[C@]2(C)O[C@H]2[C@@H]1C (stereo partly drawn) | 0.78 (≈ 1.22 µM) | 123
8 | CC[C@H]1OC(=O)CC(O)[C@H](C)[C@@H](O[C@@H]2O[C@H](C)C[C@H](N(C)C)[C@H]2O)[C@@H](CCNCC(O)CO)C[C@@H](C)C(=O)/C=C/C(C)=C/[C@@H]1C (stereo partly drawn) | 0.39 (≈ 0.609 µM) | 10
9 | CC[C@H]1OC(=O)CC(O)[C@H](C)[C@@H](O[C@@H]2O[C@H](C)C[C@H](N(C)C)[C@H]2O)[C@@H](CCN(C)C)C[C@@H](C)C(=O)/C=C/C(C)=C/[C@@H]1C (stereo partly drawn) | 0.39 (≈ 0.656 µM) | 150
10 | CCNCC[C@H]1C[C@@H](C)C(=O)/C=C/C(C)=C/[C@H](C)[C@@H](CC)OC(=O)CC(O)[C@H](C)[C@H]1O[C@@H]1O[C@H](C)C[C@H](N(C)C)[C@H]1O (stereo partly drawn) | 0.2 (≈ 0.336 µM) | > 150
11 | CC[C@H]1OC(=O)CC(O)[C@H](C)[C@@H](O[C@@H]2O[C@H](C)C[C@H](N(C)C)[C@H]2O)[C@@H](CCN2CCCCCC2)C[C@@H](C)C(=O)/C=C/C(C)=C/[C@@H]1C (stereo partly drawn) | 0.1 (≈ 0.154 µM) | > 200
12 | CC[C@H]1OC(=O)CC(O)[C@H](C)[C@@H](O[C@@H]2O[C@H](C)C[C@H](N(C)C)[C@H]2O)[C@@H](CCN2CCCCCC2)C[C@@H](C)C(=O)/C=C/[C@]2(C)O[C@H]2[C@@H]1C (stereo partly drawn) | 0.2 (≈ 0.301 µM) | 150
13 | CC[C@H]1OC(=O)CC(O)[C@H](C)[C@@H](O[C@@H]2O[C@H](C)[C@@H](O)[C@H](N(C)C)[C@H]2O)[C@@H](CCN(C)CCCNC)C[C@@H](C)C(=O)/C=C/C(C)=C/[C@@H]1CO[C@@H]1O[C@H](C)[C@@H](O)[C@@H](OC)[C@H]1OC (stereo partly drawn) | 25 (≈ 29.1 µM) | 
14 | CC[C@H]1OC(=O)CC(O)[C@H](C)[C@@H](O[C@@H]2O[C@H](C)C[C@H](N(C)C)[C@H]2O)[C@@H](CCNCCN(C)C)C[C@@H](C)C(=O)/C=C/C(C)=C/[C@@H]1C (stereo partly drawn) | 0.2 (≈ 0.314 µM) | 100
15 | CC[C@H]1OC(=O)CC(O)[C@H](C)[C@@H](O[C@@H]2O[C@H](C)C[C@H](N(C)C)[C@H]2O)[C@@H](CCN(C)CCN(C)C(=O)[C@H](C)N)C[C@@H](C)C(=O)/C=C/C(C)=C/[C@@H]1C (stereo partly drawn) | 0.05 (≈ 0.0705 µM) | 12
16 | CC[C@H]1OC(=O)CC(O)[C@H](C)[C@@H](O[C@@H]2O[C@H](C)C[C@H](N(C)C)[C@H]2O)[C@@H](CCNCCCN(C)C)C[C@@H](C)C(=O)/C=C/C(C)=C/[C@@H]1C (stereo partly drawn) | 0.39 (≈ 0.598 µM) | 5
17 | CC[C@H]1OC(=O)CC(O)[C@H](C)[C@@H](O[C@@H]2O[C@H](C)C[C@H](N(C)C)[C@H]2O)[C@@H](CCNCC(C)(C)CO)C[C@@H](C)C(=O)/C=C/C(C)=C/[C@@H]1C (stereo partly drawn) | 0.05 (≈ 0.0766 µM) | 26
18 | CC[C@H]1OC(=O)CC(O)[C@H](C)[C@@H](O[C@@H]2O[C@H](C)C[C@H](N(C)C)[C@H]2O)[C@@H](CCN(CCCN(C)C)C(C)=O)C[C@@H](C)C(=O)/C=C/C(C)=C/[C@@H]1C (stereo partly drawn) | 0.39 (≈ 0.562 µM) | > 25
19 | CC[C@H]1OC(=O)CC(O)[C@H](C)[C@@H](O[C@@H]2O[C@H](C)[C@@H](O)[C@H](N(C)C)[C@H]2O)[C@@H](CCN(C)CCN(C)C)C[C@@H](C)C(=O)/C=C/C(C)=C/[C@@H]1CO[C@@H]1O[C@H](C)[C@@H](O)[C@@H](OC)[C@H]1OC (stereo partly drawn) | 3.13 (≈ 3.65 µM) | > 50
20 | CC[C@H]1OC(=O)CC(O)[C@H](C)[C@@H](O[C@@H]2O[C@H](C)C[C@H](N(C)C)[C@H]2O)[C@@H](CCN2CCC2)C[C@@H](C)C(=O)/C=C/C(C)=C/[C@@H]1C (stereo partly drawn) | 0.2 (≈ 0.33 µM) | 46

Row | Compound | MIC [1] [mg/L] | ED50 [2] [mg/kg]
21 | CO[C@@H]1[C@@H](O[C@@H]2O[C@H](C)[C@@H](O[C@H]3C[C@@](C)(O)[C@@H](OC(=O)CC(C)C)[C@H](C)O3)[C@H](N(C)C)[C@H]2O)[C@@H](CC=O)C[C@@H](C)C(=O)/C=C/[C@@H]2O[C@H]2C[C@@H](C)OC(=O)C[C@H]1OC(C)=O [CARBOMYCIN A] | 1.56 (≈ 1.85 µM) | > 150
22 | CC[C@H]1OC(=O)CC(O)[C@H](C)[C@@H](O[C@@H]2O[C@H](C)C[C@H](N(C)C)[C@H]2O)[C@@H](CCN(CCCN(C)C)C(=O)CNC)C[C@@H](C)C(=O)/C=C/C(C)=C/[C@@H]1C (stereo partly drawn) | 1.56 (≈ 2.16 µM) | 6
23 | CC[C@H]1OC(=O)CC(O)[C@H](C)[C@@H](O[C@@H]2O[C@H](C)C[C@H](N(C)C)[C@H]2O)[C@@H](CCN2CCN(C)CC2)C[C@@H](C)C(=O)/C=C/C(C)=C/[C@@H]1C (stereo partly drawn) | 0.39 (≈ 0.6 µM) | > 150
24 | CC[C@H]1OC(=O)C[C@@H](O)[C@H](C)[C@@H](O[C@@H]2O[C@H](C)C[C@H](N(C)C)[C@H]2O)[C@@H](CC=O)C[C@@H](C)C(=O)/C=C/[C@]2(C)O[C@H]2[C@@H]1C [ROSARAMICIN] | 0.2 (≈ 0.344 µM) | 68
25 | CC[C@H]1OC(=O)CC(O)[C@H](C)[C@@H](O[C@@H]2O[C@H](C)C[C@H](N(C)C)[C@H]2O)[C@@H](CCN(C)CCCNC)C[C@@H](C)C(=O)/C=C/C(C)=C/[C@@H]1C (stereo partly drawn) | 0.78 (≈ 1.2 µM) | 4
26 | CC[C@H]1OC(=O)CC(O)[C@H](C)[C@@H](O[C@@H]2O[C@H](C)C[C@H](N(C)C)[C@H]2O)[C@@H](CCN(CC)CC)C[C@@H](C)C(=O)/C=C/C(C)=C/[C@@H]1C (stereo partly drawn) | 0.39 (≈ 0.626 µM) | 141
27 | CC[C@H]1OC(=O)CC(O)[C@H](C)[C@@H](O[C@@H]2O[C@H](C)C[C@H](N(C)C)[C@H]2O)[C@@H](CCNC2C(O)CCCC2O)C[C@@H](C)C(=O)/C=C/C(C)=C/[C@@H]1C (stereo partly drawn) | 0.2 (≈ 0.294 µM) | 11
28 | CC[C@H]1OC(=O)CC(O)[C@H](C)[C@@H](O[C@@H]2O[C@H](C)C[C@H](N(C)C)[C@H]2O)[C@@H](CCN2CCOCC2)C[C@@H](C)C(=O)/C=C/C(C)=C/[C@@H]1C (stereo partly drawn) | 0.78 (≈ 1.22 µM) | > 150
29 | CC[C@H]1OC(=O)CC(O)[C@H](C)[C@@H](O[C@@H]2O[C@H](C)C[C@H](N(C)C)[C@H]2O)[C@@H](CCN2CCCCC2)C[C@@H](C)C(=O)/C=C/[C@]2(C)O[C@H]2[C@@H]1C (stereo partly drawn) | 0.2 (≈ 0.307 µM) | 114
30 | CC[C@H]1OC(=O)CC(O)[C@H](C)[C@@H](O[C@@H]2O[C@H](C)[C@@H](O)[C@H](N(C)C)[C@H]2O)[C@@H](CCN(C)CCCN(C)C)C[C@@H](C)C(=O)/C=C/C(C)=C/[C@@H]1CO[C@@H]1O[C@H](C)[C@@H](O)[C@@H](OC)[C@H]1OC (stereo partly drawn) | 3.13 (≈ 3.59 µM) | 41
31 | CC[C@H]1OC(=O)CC(O)[C@H](C)[C@@H](O[C@@H]2O[C@H](C)C[C@H](N(C)C)[C@H]2O)[C@@H](CCN(C)CCCN(C)C)C[C@@H](C)C(=O)/C=C/C(C)=C/[C@@H]1C (stereo partly drawn) | 0.1 (≈ 0.15 µM) | 26
32 | CC[C@H]1OC(=O)CC(O)[C@H](C)[C@@H](O[C@@H]2O[C@H](C)[C@@H](O)[C@H](N(C)C)[C@H]2O)[C@@H](CCNCCCN(C)C)C[C@@H](C)C(=O)/C=C/C(C)=C/[C@@H]1CO[C@@H]1O[C@H](C)[C@@H](O)[C@@H](OC)[C@H]1OC (stereo partly drawn) | 12.5 (≈ 14.6 µM) | 
33 | CC[C@H]1OC(=O)CC(O)[C@H](C)[C@@H](O[C@@H]2O[C@H](C)C[C@H](N(C)C)[C@H]2O)[C@@H](CCN(CCO)CCO)C[C@@H](C)C(=O)/C=C/C(C)=C/[C@@H]1C (stereo partly drawn) | 0.2 (≈ 0.305 µM) | 41
34 | CCC1OC(=O)CC(O)C(C)C(O[C@@H]2O[C@H](C)C[C@H](N(C)C)[C@H]2O)C(CC=O)CC(C)C(=O)/C=C/C(C)=C/C1C (stereo partly drawn) | 0.39 (≈ 0.689 µM) | > 200
35 | CC[C@H]1OC(=O)CC(O)[C@H](C)[C@@H](O[C@@H]2O[C@H](C)C[C@H](N(C)C)[C@H]2O)[C@@H](CCN(C)CCCN(C)C(=O)[C@H](C)N)C[C@@H](C)C(=O)/C=C/C(C)=C/[C@@H]1C (stereo partly drawn) | 0.39 (≈ 0.539 µM) | 5
36 | CC[C@H]1OC(=O)CC(O)[C@H](C)[C@@H](O[C@@H]2O[C@H](C)C[C@H](N(C)C)[C@H]2O)[C@@H](CCN2CCCCC2)C[C@@H](C)C(=O)/C=C/C(C)=C/[C@@H]1C (stereo partly drawn) | 0.2 (≈ 0.315 µM) | 150
37 | CC[C@H]1OC(=O)CC(O)[C@H](C)[C@@H](O[C@@H]2O[C@H](C)C[C@H](N(C)C)[C@H]2O)[C@@H](CCN(C)C)C[C@@H](C)C(=O)/C=C/[C@]2(C)O[C@H]2[C@@H]1C (stereo partly drawn) | 0.39 (≈ 0.638 µM) | > 150
38 | CC[C@H]1OC(=O)CC(O)[C@H](C)[C@@H](O[C@@H]2O[C@H](C)C[C@H](N(C)C)[C@H]2O)[C@@H](CCN(C)CC)C[C@@H](C)C(=O)/C=C/C(C)=C/[C@@H]1C (stereo partly drawn) | 0.2 (≈ 0.328 µM) | 150
39 | CO[C@@H]1[C@@H](O[C@@H]2O[C@H](C)[C@@H](O[C@H]3C[C@@](C)(O)[C@@H](OC(=O)CC(C)C)[C@@H](C)O3)[C@@H](N(C)C)[C@H]2O)[C@@H](CC=O)C[C@@H](C)C(=O)/C=C/C=C/C[C@@H](C)OC(=O)C[C@H]1OC(C)=O | 6.25 (≈ 7.57 µM) | > 150
40 | CC[C@H]1OC(=O)CC(O)[C@H](C)[C@@H](O[C@@H]2O[C@H](C)C[C@H](N(C)C)[C@H]2O)[C@@H](CCN(C)CCO)C[C@@H](C)C(=O)/C=C/C(C)=C/[C@@H]1C (stereo partly drawn) | 0.2 (≈ 0.32 µM) | 45
